From patent US9539321B2, “HMGB1-derived peptides enhance immune response to antigens” (The Regents of the University of California, priority 2010, dated 2017)
Entries after “also recorded” stand apart in the source; their conditions may differ. Read-outs that look alike come from different tables or passages of the source. Where a SMILES comes first, the peptide text is derived from it. The star is where a group is joined. Biotin = O=C1N[C@H]2[C@H](CS[C@H]2CCCCC(=O)*)N1

Assays:
[1] = tested on: p-IRF3 in RAW 264.7 macrophages; assay: Immunoblotting for phospho-IRF3; format: cell-based, mouse; conditions: Dynasore 80 μM pre-treatment
J774 macrophages [2] = format: cell-based, mouse
J774 macrophages [3] = assay: Uptake of Cp488-labeled Hp91 by macrophages, flow cytometry; format: cell-based, mouse; conditions: Dynasore 80 μM, Cp488-labeled Hp91 200 μg ml^−1
[4] = Adverse effects of tested doses in mice; format: in vivo
Immature human DCs [5] = assay: Peptide binding/uptake by flow cytometry; conditions: for uptake by DCs: biotinylated peptide 200 μg ml^−1, 30 minutes, 37° C.
Immature human DCs [6] = assay: Stimulation of DCs, IL-6 by ELISA; format: cell-based; conditions: for effect of inhibitor pre-treatment on Hp91-induced IL-6 secretion: SB203580 5 or 20 μM, PD98059 20 μM, TPCK 20 μM, 48 h
[7] = tested on: antigen-specific IFN-γ secreting T cells; assay: IFN-γ ELISPOT of splenocytes from immunized mice; format: in vivo, C57BL/6 mice; conditions: for number of antigen-specific IFNγ-secreting T cells compared to PBS: equimolar peptide with SIINFEKL peptide
Protocol: Female C57BL/6 mice 8-12 weeks of age were used for most experiments. All mice were purchased from Charles River Laboratories (Boston, Mass., USA) and housed at the Moores UCSD Cancer Center animal facility. All animal studies were approved by the Institutional Animal Care and Use Committee of UCSD and were perfolined in accordance with the institutional guidelines. For most experiments, mice were immunized s.c. with 50 μg of SIINFEKL (OVA-I) peptide (SEQ ID NO: 45) and 50 μg of ISQAVHAAHAEINEAGR (OVA-II) peptide (SEQ ID NO: 46). The OVA peptide was co-administered with either Hp91 (30 to 500 μg) or PBS (negative control). For some experiments, a protein vaccine group was included, wherein 500 μg of Hp91 was co-administered with 100 μg of LPS-free OVA protein. As a positive control, mice were immunized s.c. with OVA peptide(s) or protein in Incomplete Freund's Adjuvant “IFA” (Sigma-Aldrich, St. Louis, Mo., USA). If not otherwise indicated, mice were immunized and boosted two weeks later and spleens and blood were collected 10-14 days after the final immunization.
Single cell suspensions of splenocytes were prepared by mechanical disruption and separation through a 70 μm nylon cell strainer (BD Biosciences, Franklin Lakes, N.J., USA). Red blood cells were lysed using ammonium chloride buffer (Roche Diagnostics, Indianapolis, Ind., USA) and the splenocytes were subsequently resuspended in complete medium (RPMI 1640 with 10% FBS, L-glutamine, penicillin, streptomycin, and HEPES). in some experiments, CD4+ and CD8+ cells were depleted from bulk splenocyte populations using anti-CD4 or anti-CD8α conjugated microbeads (Miltenyi-Biotec, Auburn, Calif., USA) according to the manufacturer's instructions.
Freshly isolated splenocytes were plated in duplicate to wells of a nitrocellulose bottom enzyme-linked immunospot (ELISPOT) plate (Millipore, Millerica, Mass., USA) that had been previously coated overnight with 5 μg ml^−1 monoclonal anti-mouse IFN-γ antibody (Mabtech, Stockholm, Sweden). Splenocytes were cultured overnight at 37° C. with 2.5 μg ml^−1 SIINFEKL (OVA-I) peptide, 2.5 μg ml^−1 ISQAVHAAHAEINEAGR (OVA-II) peptide, or left unstimulated (medium only). After 18 h, culture supernatants were collected for cytokine analysis and ELISPOT plates were developed using 1 μg ml^−1 biotinylated anti-mouse IFN-γ antibody (Mabtech), Streptavidin-HRP (Mabtech), and TMB Substrate (Mabtech). The plate was scanned and the spots were counted using an automated ELISpot Reader System (CTL ImmunoSpot, Shaker Heights, Ohio, USA).
Mice were immunized s.c. with 50 μg of SIINFEKL peptide. The SIINFEKL peptide was co-administered with either PBS, Hp91 (250 μg), or scrambled Hp91 (250 μg). Peptides were dissolved in PBS for all immunizations, Mice were boosted two weeks later and spleens and blood were collected one week after the final immunization. Single cell suspensions of splenocytes were prepared by mechanical disruption and separation through a […] nylon cell strainer (BD Biosciences). Red blood cells were lysed using ammonium chloride buffer (Roche Diagnostics, Indianapolis, Ind.) and the splenocytes were subsequently resuspended in RPMI 1640 medium (Invitrogen) supplemented with 10 mmol HEPES (GIBCO-BRL), penicillin (100 U/mL)—streptomycin (100 μg/mL)—glutamine (2 mM) (GIBCO-BRI.), arid 5% (vol/vol) fetal calf serum (Omega).
Freshly isolated splenocytes were plated in duplicate to wells of a nifrocellulose bottom enzymelinked immunospot (ELISPOT) plate (Millipore, NAillerica, Mass., USA) that had been previously coated overnight with 5 μg ml^−1 monoclonal anti-mouse IFN-γ antibody (Mabtech, Stockholm, Sweden). Splenocytes were cultured overnight at 37° C., with 2.5 μg ml^−1 SIINFEKL peptide, 5 μg ml^−1 concanavalin A positive control (Sigma), or left unstimulated (medium only). […]

Circular dichroism = format: physicochemical; conditions: 75%/25% TFE/H2O, 200 μg ml^−1
Protocol: CD spectra of peptides, dissolved in 75%/25% Trifluoroethanol (TFE, Sigma)/H2O (vol/vol), were collected on an AVIV model 202 Circular Dichroism Spectrometer, under nitrogen, using a 1 mm pathlength quartz cuvette. These spectra were corrected by subtraction of a “solvent-only” spectrum and smoothed. The spectra are shown in mean residue ellipticity (θmrw). Peptides were analyzed at 200 μg ml^−1.

splenocytes = assay: IL-2 / IL-4 secretion of splenocytes from immunized mice by ELISA; format: in vivo, C57BL/6 mice
Protocol: Splenocytes were cultured overnight with 2.5 μg ml^−1 OVA-I peptide, 2.5 μg ml^−1 OVA-II peptide, 5 μg ml^−1 concanavalin A positive control (Sigma), or left unstimulated (media only). After 18 h, cell culture supernatants were collected and analyzed for the presence of IL-2 and IL-4 by ELISA (eBioscience).
(§1) To measure cytokine release from immunized mice, splenocytes were cultured overnight with 2.5 μg ml^−1 SINFEKI: peptide, 5 μg ml^−1 concanavalin A positive control (Sigma), or left unstimulated (medium only). After 18 h, cell culture supernatants were collected and analyzed for the presence of IL-2 by ELISA. (eBioscience).
as §1, with “SIINFEKL” for “SINFEKI:”, “(media” for “(medium”, “ELISA” for “ELISA.”

B16 melanoma cells = assay: Prophylactic B16 tumor challenge
Immature human DCs [8] = assay: Confocal microscopy of peptide binding/uptake; format: cell-based; conditions: even after 30 minutes at 37° C.
Protocol: Immature human DCs (10^5) were pre-cooled on ice and subsequently incubated for 30 minutes on ice in culture medium with biotinylated Hp91 or Hp121 to allow peptide binding. Cells were washed and then incubated for the indicated time at 37° C. Cells were cytospun (Shandon Cytospin 2 centrintge) onto glass slides, fixed, pernieabiiized with acetone, and stained with Streptavidin-Alexa 488 (Invitrogen) to visualize biotinylated peptides and Hoechst 33258 DNA stain (Invitrogen). Cells were imaged on a Zeiss LSM confocal microscope.

mouse BM-DCs = assay: Stimulation of mouse BM-DCs, IL-6 by ELISA; format: cell-based
Immature human DCs [9] = conditions: cited from earlier work
[10] = biotinylated, 90 μM, 30 minutes 37° C.

For O=C(N/N=C/c1ccc(O)c(O)c1)c1cc2ccccc2cc1O [Dynasore], the “effect on Hp91-induced phosphorylation of IRF3” value [1] was “reduced the phosphorylation of IRF3”, the “effect of inhibitor pre-treatment on Hp91-induced IL-6 secretion” value (J774 macrophages [2]) was “significantly reduced” and the “effect on uptake of Hp91” value (J774 macrophages [3]) was “significantly inhibited uptake”.

With CC(C)C[C@H](NC(=O)[C@H](Cc1ccccc1)NC(=O)[C@H](Cc1ccccc1)NC(=O)[C@H](C)NC(=O)[C@H](CO)NC(=O)[C@@H]1CCCN1C(=O)[C@@H]1CCCN1C(=O)[C@H](CCCNC(=N)N)NC(=O)[C@H](CCCCN)NC(=O)[C@@H]1CCCN1C(=O)[C@H](C)NC(=O)[C@H](CC(N)=O)NC(=O)[C@@H]1CCCN1C(=O)[C@H](CC(=O)O)NC(=O)CCCC[C@@H]1SC[C@@H]2NC(=O)N[C@@H]21)C(=O)N[C@@H](Cc1ccccc1)C(=O)N[C@@H](CS)C(=O)N[C@@H](CO)C(=O)N[C@@H](CCC(=O)O)C(=O)O [Hp91, DPNAPKRPPSAFFLFCSE] (Biotin-DPNAPKRPPSAFFLFCSE-OH) the adverse effects [4] was “no adverse effects”.

With C/C1=C/C(=O)O[C@@H]2C[C@@H](CC[C@H](C)/C=C\CC1)O[C@@](O)([C@@H]1CSC(=O)N1)C2 [Latrunculin B] the “effect of inhibitor pre-treatment on uptake of biotinylated Hp91” value (Immature human DCs [5]) was “did not significantly reduce” and the “uptake of Dextran FITC” value (Immature human DCs [5]) was “completely abrogating”.

With COc1cccc(-c2cc(=O)c3ccccc3o2)c1N [PD98059] the “effect of inhibitor pre-treatment on Hp91-induced IL-6 secretion” value (Immature human DCs [6]) was “failed to significantly reduce”.

For C[S+]([O-])c1ccc(-c2nc(-c3ccncc3)c(-c3ccc(F)cc3)[nH]2)cc1 (stereo not drawn) [SB203580], the “effect of inhibitor pre-treatment on Hp91-induced IL-6 secretion” value (Immature human DCs [6]) was “significantly reduced” and the “effect of inhibitor pre-treatment on Hp91-induced IL-6 secretion” value (J774 macrophages [2]) was “significantly lowered”.

With [N-]=[N+]=[N-] [Sodium azide, sodium azide] the inhibition at 10000 µM (Immature human DCs [5]; Homo sapiens, read-out: inhibition of Hp91 uptake) was ~40%.

For N=C(N)NC(=O)c1nc(Cl)c(N)nc1N [amiloride], the “effect of inhibitor pre-treatment on uptake of biotinylated Hp91” value (Immature human DCs [5]; 30 minutes pre-treatment, PAO 2 μM, CP 100 μM, NY 20 μM, AM 2 mM) was “failed to significantly reduce”.

With CN(C)CCCN1c2ccccc2Sc2ccc(Cl)cc21 [chlorpromazine] the “effect of inhibitor pre-treatment on Hp91-induced IL-6 secretion” value (J774 macrophages [2]) was “no reduction” and the “effect of inhibitor pre-treatment on uptake of biotinylated Hp91” value (Immature human DCs [5]) was “significantly reduced”.

For C[C@@H]1[C@H](O)[C@@H](C)/C=C/C=C/CC/C=C/C=C/C=C/C=C/C(O[C@H]2O[C@H](C)[C@@H](O)[C@H](N)[C@@H]2O)CC2O[C@](O)(CC(O)C(O)CCC(O)CC(O)CC(O)CC(=O)O[C@H]1C)CC(O)C2C(=O)O (stereo partly drawn) [nystatin], the “effect of inhibitor pre-treatment on uptake of biotinylated Hp91” value (Immature human DCs [5]) was “failed to significantly reduce”.

For APKRPPSA (UC411 peptide), the “endocytosis by DCs” value (Immature human DCs [5]; [10]) was “failed to be endocytosed”.

With “ASLAPPFPNCFDPKSREF (scrambled Hp91 peptide)” the “antigen-specific immune response (IFN-γ ELISPOT, IL-2)” value ([7]; 250 μg with SIINFEKL peptide, compared to Hp91) was “failed to mount an antigen-specific immune response” and the “uptake by DCs” value (Immature human DCs [5]) was “much lesser extent than Hp91; also recorded: not taken up”.

For DPNAPKRP (UC18 peptide), the “secondary structure from CD spectrum” value (Circular dichroism) was “polyproline II helix” and the “endocytosis by DCs” value (Immature human DCs [5]; [10]) was “failed to be endocytosed”.

For “N-tosyl-L-phenylalanine chloromethyl ketone [TPCK]”, the “effect of inhibitor pre-treatment on Hp91-induced IL-6 secretion” value (Immature human DCs [6]) was “significantly reduced” and the “effect of inhibitor pre-treatment on Hp91-induced IL-6 secretion” value (J774 macrophages [2]) was “significantly lowered”.

For RPPSAFFL (UC714 peptide), the “IFNγ-secreting T cells relative to full-length Hp91 peptide” value ([7]; equimolar doses) was 50%, the “number of antigen-specific IFNγ-secreting T cells compared to PBS” value [7] was “moderate increases” and the “endocytosis by DCs” value (Immature human DCs [5]; [10]) was “failed to be endocytosed”.

With RPPSAFFLFCSE (UC718 peptide) the “IL-6 / cytokine secretion from DCs” value (Immature human DCs [6]; short peptides, 48 hours) was “induces cytokine release from DCs”.

With SAFFLFCSE [UC1018] the “adjuvant strength in vivo relative to Hp91, by IFN-γ ELISPOT and IL-2 cytokine release” value ([7]; discussion statement) was 3 fold, the “IFNγ ELISPOT immune response relative to Hp91 positive control” value ([7]; equimolar doses) was 4 fold and the “number of antigen-specific IFNγ-secreting T cells compared to PBS” value [7] was “significant increase”. For the same compound, the “IL-2 level relative to Hp91 controls” value (splenocytes; equimolar doses) was 4 fold, the IL-2 (splenocytes; immunized with SIINFEKL peptide and peptide adjuvant) was “significantly enhanced” and the “secondary structure from CD spectrum” value (Circular dichroism) was “alpha helix”. For the same compound, the “tumor formation and tumor growth vs PBS group” value (B16 melanoma cells; 142 μg with apoptotic B16 cells, significant as early as 11 days post challenge) was “delay in tumor formation and slowing of tumor growth”, the “mice tumor-free and alive” value (B16 melanoma cells; at 75 days post tumor challenge) was 60% and the “uptake by DCs compared to Hp91 controls” value (Immature human DCs [5]; [10]) was “over 3 fold”.

For SIGDVAKKLGEMWNNTAA (Hp121 peptide), the “number of INF-γ secreting cells” value ([7]; s.c. with OVA-I peptide, 250 μg peptide, freshly isolated and expanded splenocytes, vs PBS/OVA-I) was “No significant increase”, the “detection within DCs” value (Immature human DCs [8]) was “not detected” and the “activation of mouse BM-DCs in vitro” value (mouse BM-DCs) was “does not cause activation”. The “activation of human DCs in vitro” value (Immature human DCs [9]) was “does not cause activation” and the “uptake by DCs” value (Immature human DCs [5]) was “not taken up”.
